Laboratory results reported in US9738607B2, “Scalable process for the preparation of Sorafenib tosylate ethanol solvate and Sorafenib tosylate form III” (F.I.S.—FABBRICA ITALIANA SINTETICI S.P.A, priority 2015, dated 2017).

Columns and labels:
[1] = Stability studies of Sorafenib tosylate form III (humidity/temperature storage); assay type: physicochemical; details: form III obtained from methanol solvate
Experimental: Stability studies of the free Sorafenib tosylate form III were already performed. These studies indicate that form III remained stable 3 months under accelerated conditions of ICH guideline (40° C.-70% RH) and less than 7 months at RT under 94% RH, while it remained stable at least 7 month at RT under 60% RH.
As the stability study of Sorafenib tosylate form III was performed with Sorafenib tosylate form III obtained from Sorafenib tosylate methanol solvate, only a minor difference in behavior could be possible with this new solid.

[2] = Stability study of Sorafenib hemi-tosylate monohydrate under four humidity/temperature conditions, XRPD; assay type: physicochemical
Experimental: Four different humidity/temperature conditions were selected for this study: • Humidity (60% RH) at room temperature, • High humidity (94% RH) at room temperature, • Accelerated conditions of ICH guidelines (40° C.-70% RH), • 80° C. under vacuum.
Karl-Fischer and DSC/TGA analyses confirmed that Sorafenib hemi-tosylate is a monohydrate (water content 3.9% for KF and 2.7% for TGA—3.1% calc. for a monohydrate). This form was previously characterized in WO2009/092070 but, as Karl-Fischer and TGA were not performed, the presence of water in this crystalline form was not mentioned. […] However, at 80° C. under vacuum, traces of SORAFENIB free base were detected after almost three months.

SMILES | time form III remained stable ([1]; RT under 60% RH) | time form III remained stable ([1]; RT under 94% RH) | time form III remained stable ([1]; accelerated conditions of ICH guideline (40° C.-70% RH)) [months] | time remained stable ([2]; 60% RH at room temperature) | time remained stable ([2]; 70% RH at 40° C.) | time remained stable ([2]; 94% RH at room temperature) | crystalline changes by XRPD ([2]; after 88 days at 80° C. under vacuum) | crystalline changes by XRPD ([2]; after 119 days at 60% RH at room temperature) | crystalline changes by XRPD ([2]; after 119 days at 70% RH at 40° C.) | crystalline changes by XRPD ([2]; after 119 days at 94% RH at room temperature)
CNC(=O)c1cc(Oc2ccc(NC(=O)Nc3ccc(Cl)c(C(F)(F)F)c3)cc2)ccn1.Cc1ccc(S(=O)(=O)O)cc1 [Sorafenib tosylate form III, 4-[4-({[4-chloro-3-(trifluoromethyl)phenyl]carbamoyl}amino)phenoxy]-N-methylpyridine-2-carboxamide 4-methylbenzenesulfonate (1:1)] | at least 7 month | less than 7 months | 3 | – | – | – | – | – | – | –
CNC(=O)c1cc(Oc2ccc(NC(=O)Nc3ccc(Cl)c(C(F)(F)F)c3)cc2)ccn1.Cc1ccc(S(=O)(=O)O)cc1 [Sorafenib hemi-tosylate] | – | – | – | at least four | at least four | at least four | traces of Sorafenib free base were observed | No crystalline changes were detected | No crystalline changes were detected | No crystalline changes were detected
